Consider five molecules from ChEMBL document CHEMBL3991601, “The target landscape of clinical kinase drugs” (Science, 2017).

For one experiment, the target named is Actin-related protein 2 (Homo sapiens, UniProt P61160).
Experiment [1] concerns the target Mitotic checkpoint serine/threonine-protein kinase BUB1 (Homo sapiens, UniProt O43683).
In experiment [2] the target is T1, Cysteine--tRNA ligase, cytoplasmic (Homo sapiens, UniProt P49589).
T1 sequence (P49589 whole entry): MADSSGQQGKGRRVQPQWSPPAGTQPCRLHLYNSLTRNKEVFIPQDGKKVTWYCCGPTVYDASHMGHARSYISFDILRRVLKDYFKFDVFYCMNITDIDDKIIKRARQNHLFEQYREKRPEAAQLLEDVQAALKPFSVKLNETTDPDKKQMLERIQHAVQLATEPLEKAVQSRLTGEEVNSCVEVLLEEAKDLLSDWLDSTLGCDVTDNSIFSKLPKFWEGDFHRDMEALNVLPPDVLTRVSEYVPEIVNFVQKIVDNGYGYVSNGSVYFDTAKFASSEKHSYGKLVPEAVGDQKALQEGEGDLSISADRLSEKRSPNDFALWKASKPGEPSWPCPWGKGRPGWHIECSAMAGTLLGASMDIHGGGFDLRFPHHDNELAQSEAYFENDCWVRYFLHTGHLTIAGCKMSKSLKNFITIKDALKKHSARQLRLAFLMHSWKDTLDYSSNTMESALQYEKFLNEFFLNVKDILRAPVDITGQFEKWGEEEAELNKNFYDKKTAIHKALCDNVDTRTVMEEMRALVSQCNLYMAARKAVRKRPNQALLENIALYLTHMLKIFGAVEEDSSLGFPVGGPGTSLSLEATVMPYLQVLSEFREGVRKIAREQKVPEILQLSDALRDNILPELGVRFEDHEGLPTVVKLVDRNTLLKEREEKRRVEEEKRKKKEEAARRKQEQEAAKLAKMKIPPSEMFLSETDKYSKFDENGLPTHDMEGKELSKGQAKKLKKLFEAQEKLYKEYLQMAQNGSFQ

For experiment [3], the target named is Cyclin-dependent kinase 1 (Homo sapiens, UniProt P06493).
Sequence of Cyclin-dependent kinase 1 (P06493 whole entry): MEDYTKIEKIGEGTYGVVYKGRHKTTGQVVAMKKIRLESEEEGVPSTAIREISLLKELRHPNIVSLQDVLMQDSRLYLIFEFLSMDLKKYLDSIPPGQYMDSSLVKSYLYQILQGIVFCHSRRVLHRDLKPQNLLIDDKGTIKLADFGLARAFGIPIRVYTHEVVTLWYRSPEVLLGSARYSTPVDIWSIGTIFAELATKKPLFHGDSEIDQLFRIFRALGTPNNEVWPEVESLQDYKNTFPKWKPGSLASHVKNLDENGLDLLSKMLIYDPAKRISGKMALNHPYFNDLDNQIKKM
In experiment [4] the target is Cyclin-dependent kinase 7 (Homo sapiens, UniProt P50613).
Sequence of Cyclin-dependent kinase 7 (P50613 whole entry): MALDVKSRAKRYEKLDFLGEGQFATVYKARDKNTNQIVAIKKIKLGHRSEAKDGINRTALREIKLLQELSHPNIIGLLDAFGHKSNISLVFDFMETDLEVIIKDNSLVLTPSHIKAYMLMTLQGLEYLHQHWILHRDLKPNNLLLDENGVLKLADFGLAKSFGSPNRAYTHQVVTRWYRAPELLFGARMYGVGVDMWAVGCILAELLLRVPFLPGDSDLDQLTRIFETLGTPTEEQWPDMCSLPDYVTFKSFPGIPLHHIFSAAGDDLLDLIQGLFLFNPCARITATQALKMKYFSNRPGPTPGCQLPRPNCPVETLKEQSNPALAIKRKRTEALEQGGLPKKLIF
The next experiment deals with T2, Ephrin type-B receptor 6 (Homo sapiens, UniProt O15197).
T2 sequence (O15197 whole entry): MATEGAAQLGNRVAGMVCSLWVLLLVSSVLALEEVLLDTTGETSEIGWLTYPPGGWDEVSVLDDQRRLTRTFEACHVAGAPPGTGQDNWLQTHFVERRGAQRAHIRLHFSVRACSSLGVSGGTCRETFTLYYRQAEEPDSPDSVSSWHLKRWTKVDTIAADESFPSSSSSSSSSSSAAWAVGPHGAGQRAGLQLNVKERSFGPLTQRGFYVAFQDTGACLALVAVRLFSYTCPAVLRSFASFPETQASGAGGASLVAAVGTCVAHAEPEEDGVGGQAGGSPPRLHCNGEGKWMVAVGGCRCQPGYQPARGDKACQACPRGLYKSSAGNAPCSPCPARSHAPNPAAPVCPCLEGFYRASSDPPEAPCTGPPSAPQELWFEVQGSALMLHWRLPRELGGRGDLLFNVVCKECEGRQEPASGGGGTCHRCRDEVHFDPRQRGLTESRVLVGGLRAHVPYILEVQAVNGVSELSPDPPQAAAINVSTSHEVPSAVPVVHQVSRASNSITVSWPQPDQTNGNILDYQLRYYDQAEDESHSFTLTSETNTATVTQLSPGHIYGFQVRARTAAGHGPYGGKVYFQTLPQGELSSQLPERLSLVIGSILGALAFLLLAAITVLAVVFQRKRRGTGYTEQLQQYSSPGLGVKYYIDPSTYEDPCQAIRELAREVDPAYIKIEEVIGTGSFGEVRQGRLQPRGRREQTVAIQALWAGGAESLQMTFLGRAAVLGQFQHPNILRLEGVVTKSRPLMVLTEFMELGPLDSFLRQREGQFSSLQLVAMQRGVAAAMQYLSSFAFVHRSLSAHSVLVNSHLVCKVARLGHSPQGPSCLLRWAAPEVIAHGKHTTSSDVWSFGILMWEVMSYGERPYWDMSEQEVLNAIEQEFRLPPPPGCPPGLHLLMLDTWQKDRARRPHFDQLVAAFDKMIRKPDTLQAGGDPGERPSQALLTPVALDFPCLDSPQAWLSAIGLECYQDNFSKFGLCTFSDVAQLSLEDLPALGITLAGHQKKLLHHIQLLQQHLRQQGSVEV

Experiment [5] has as its target Glycogen synthase kinase-3 alpha (Homo sapiens, UniProt P49840).
Experiment [6] concerns the target T3, Ras-related protein Rab-27A (Homo sapiens, UniProt P51159).
T3 sequence (P51159 whole entry): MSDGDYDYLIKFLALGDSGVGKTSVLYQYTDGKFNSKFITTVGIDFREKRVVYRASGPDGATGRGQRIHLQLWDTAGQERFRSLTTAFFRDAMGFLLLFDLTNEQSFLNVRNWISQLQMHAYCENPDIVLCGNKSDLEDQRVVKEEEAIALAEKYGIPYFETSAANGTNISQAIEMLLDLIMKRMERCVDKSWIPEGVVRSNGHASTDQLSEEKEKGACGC

Experiment [7] addresses T4, Signal recognition particle receptor subunit alpha (Homo sapiens, UniProt P08240).
T4 sequence (P08240 whole entry): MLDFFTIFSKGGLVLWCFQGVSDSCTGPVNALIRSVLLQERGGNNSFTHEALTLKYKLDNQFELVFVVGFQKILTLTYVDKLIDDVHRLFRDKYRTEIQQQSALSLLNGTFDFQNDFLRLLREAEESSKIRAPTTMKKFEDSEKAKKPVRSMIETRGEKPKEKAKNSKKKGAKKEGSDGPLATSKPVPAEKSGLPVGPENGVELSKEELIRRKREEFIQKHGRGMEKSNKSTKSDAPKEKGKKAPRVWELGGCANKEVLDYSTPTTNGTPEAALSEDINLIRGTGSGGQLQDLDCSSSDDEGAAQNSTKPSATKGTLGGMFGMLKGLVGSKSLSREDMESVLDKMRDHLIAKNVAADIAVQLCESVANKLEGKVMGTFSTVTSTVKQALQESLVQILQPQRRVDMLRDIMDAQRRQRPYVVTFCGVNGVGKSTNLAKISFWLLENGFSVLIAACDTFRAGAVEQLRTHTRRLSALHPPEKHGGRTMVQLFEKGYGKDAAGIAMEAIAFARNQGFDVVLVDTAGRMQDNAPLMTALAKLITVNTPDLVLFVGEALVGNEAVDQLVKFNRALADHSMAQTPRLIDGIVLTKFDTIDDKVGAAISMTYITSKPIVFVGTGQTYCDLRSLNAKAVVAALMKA

Experiment [8] concerns the target Non-receptor tyrosine-protein kinase TYK2 (Homo sapiens, UniProt P29597).

Activity calls are given as the source filed them.
Further: in the data inactive means no Kd found up to 30 µM.

Sequence of Glycogen synthase kinase-3 alpha (P49840 whole entry): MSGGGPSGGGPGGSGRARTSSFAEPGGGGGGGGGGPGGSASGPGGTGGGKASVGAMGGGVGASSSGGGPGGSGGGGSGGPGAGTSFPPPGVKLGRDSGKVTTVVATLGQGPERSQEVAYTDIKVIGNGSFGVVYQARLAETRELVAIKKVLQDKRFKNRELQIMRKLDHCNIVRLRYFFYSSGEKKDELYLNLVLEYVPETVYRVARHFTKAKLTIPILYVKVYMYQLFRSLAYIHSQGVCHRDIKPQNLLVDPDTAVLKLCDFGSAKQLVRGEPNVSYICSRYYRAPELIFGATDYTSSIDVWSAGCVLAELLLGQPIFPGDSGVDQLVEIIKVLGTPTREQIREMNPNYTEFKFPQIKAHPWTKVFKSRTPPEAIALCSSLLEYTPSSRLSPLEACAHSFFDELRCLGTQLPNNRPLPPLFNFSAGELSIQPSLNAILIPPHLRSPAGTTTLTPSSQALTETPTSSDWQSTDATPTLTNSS
Sequence of Non-receptor tyrosine-protein kinase TYK2 (P29597 whole entry): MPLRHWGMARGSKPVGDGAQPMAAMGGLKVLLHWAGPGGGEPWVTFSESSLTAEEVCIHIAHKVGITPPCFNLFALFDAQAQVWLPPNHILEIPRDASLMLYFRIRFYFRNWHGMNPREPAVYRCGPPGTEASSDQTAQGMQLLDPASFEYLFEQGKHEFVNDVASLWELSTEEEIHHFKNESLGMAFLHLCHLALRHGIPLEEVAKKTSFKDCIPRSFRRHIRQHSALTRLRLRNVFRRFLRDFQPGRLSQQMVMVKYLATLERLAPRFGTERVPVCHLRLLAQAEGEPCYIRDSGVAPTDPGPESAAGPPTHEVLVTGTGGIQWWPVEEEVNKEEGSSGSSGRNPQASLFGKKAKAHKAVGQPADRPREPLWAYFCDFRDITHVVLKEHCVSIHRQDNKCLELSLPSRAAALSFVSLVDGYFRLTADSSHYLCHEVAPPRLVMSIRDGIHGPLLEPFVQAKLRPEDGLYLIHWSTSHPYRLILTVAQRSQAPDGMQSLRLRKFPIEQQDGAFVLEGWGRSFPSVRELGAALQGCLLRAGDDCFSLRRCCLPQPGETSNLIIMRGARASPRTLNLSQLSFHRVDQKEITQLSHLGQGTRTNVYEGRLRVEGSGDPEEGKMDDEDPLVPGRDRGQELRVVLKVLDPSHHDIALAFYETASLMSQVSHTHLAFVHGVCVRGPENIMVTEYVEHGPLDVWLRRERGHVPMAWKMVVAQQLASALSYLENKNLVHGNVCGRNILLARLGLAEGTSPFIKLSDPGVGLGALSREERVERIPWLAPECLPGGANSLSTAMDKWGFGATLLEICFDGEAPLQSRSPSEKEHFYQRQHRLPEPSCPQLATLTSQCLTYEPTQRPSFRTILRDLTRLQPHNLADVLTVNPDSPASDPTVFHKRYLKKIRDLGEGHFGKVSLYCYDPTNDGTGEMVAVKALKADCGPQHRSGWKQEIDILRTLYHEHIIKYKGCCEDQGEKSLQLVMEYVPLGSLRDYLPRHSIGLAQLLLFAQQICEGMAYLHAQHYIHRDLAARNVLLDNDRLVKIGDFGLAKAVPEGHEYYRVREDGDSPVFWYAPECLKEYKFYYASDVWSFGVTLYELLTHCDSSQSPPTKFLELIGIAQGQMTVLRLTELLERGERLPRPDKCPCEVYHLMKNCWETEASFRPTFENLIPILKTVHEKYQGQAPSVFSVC
Sequence of Mitotic checkpoint serine/threonine-protein kinase BUB1 (O43683 whole entry): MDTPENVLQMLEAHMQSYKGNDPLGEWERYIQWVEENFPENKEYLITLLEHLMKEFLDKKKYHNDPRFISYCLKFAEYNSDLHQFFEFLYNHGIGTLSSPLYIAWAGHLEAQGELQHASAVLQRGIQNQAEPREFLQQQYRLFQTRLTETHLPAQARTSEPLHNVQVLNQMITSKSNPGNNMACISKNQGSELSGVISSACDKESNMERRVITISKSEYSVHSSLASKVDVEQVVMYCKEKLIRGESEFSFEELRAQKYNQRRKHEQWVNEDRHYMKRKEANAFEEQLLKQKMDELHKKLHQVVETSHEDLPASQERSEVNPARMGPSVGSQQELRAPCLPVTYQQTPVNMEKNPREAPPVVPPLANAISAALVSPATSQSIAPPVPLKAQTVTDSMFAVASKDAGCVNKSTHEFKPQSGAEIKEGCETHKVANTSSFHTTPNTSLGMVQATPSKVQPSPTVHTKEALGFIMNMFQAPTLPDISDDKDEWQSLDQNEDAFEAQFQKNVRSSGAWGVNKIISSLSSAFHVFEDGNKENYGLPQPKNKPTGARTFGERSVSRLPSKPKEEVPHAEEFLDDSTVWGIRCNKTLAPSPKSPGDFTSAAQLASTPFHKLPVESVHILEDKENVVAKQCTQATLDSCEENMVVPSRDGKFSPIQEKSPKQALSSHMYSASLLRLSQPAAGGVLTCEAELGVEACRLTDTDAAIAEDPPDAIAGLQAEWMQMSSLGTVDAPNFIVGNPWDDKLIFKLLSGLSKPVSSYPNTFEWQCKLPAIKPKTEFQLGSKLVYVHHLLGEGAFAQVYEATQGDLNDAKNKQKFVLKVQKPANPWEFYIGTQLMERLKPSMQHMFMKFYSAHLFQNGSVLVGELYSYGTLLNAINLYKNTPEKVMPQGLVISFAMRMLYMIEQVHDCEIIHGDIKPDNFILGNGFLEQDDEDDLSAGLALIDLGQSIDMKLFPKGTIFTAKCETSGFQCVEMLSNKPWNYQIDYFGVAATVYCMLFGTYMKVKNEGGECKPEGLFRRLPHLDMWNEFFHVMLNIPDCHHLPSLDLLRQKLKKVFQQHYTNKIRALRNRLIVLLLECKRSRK

By Kd is commonly meant the constant that tells how readily two partners part at equilibrium. With `Cc1ccc(NC(=O)c2ccc(CN3CC[C@H](N(C)C)C3)c(C(F)(F)F)c2)cc1Nc1nccc(-c2cncnc2)n1` [BAFETINIB], the Kd (on Actin-related protein 2; in experiment [1]; in [2]; in [3]; in experiment [4]; on Ephrin type-B receptor 6) was > 30 µM (inactive) each time. In addition, the Kd in experiment [5], in experiment [6], in [7] and in experiment [8] was > 30 µM (inactive) each time.

Consider `COCCNCc1ccc(-c2cc3nccc(Oc4ccc(NC(=S)NC(=O)Cc5ccc(F)cc5)cc4F)c3s2)nc1` [GLESATINIB], for which the Kd (on Actin-related protein 2; in experiment [1]; in [2]; in [3]; in experiment [4]; at Ephrin type-B receptor 6) was > 30 µM (inactive) throughout. The Kd in [5], in experiment [6], in experiment [7] and in experiment [8] was > 30 µM (inactive) each time.

On to `CC[C@H](Nc1ncnc2[nH]cnc12)c1nc2cccc(F)c2c(=O)n1-c1ccccc1` [IDELALISIB], for which the Kd (at Actin-related protein 2; in experiment [1]; in [2]; in [3]; in experiment [4]; on Ephrin type-B receptor 6) was > 30 µM (inactive) throughout. For the same molecule, the Kd in [5], in experiment [6], in experiment [7] and in experiment [8] was > 30 µM (inactive) each time.

Consider `CN1CC[C@@H](c2c(O)cc(O)c3c(=O)cc(-c4ccccc4Cl)oc23)[C@@H]1CO`, for which the Kd at Actin-related protein 2 was > 30 µM (inactive); in experiment [1] it was > 30 µM (inactive); in experiment [2], > 30 µM (inactive); in experiment [3], 4.23 µM (active); in experiment [4] it was > 30 µM (inactive); at Ephrin type-B receptor 6, > 30 µM (inactive). Also, the Kd in experiment [5], in experiment [6], in experiment [7] and in [8] was > 30 µM (inactive) each time.

On to `Cc1cc(-c2cc(O)ccc2Cl)cc2nnc(Nc3ccc(OCCN4CCCC4)cc3)nc12`, for which the Kd was > 30 µM (inactive) on Actin-related protein 2; > 30 µM (inactive) in [1]; > 30 µM (inactive) in experiment [2]; > 30 µM (inactive) in [3]; > 30 µM (inactive) in experiment [4]; 0.0006 µM (active) on Ephrin type-B receptor 6. Besides, the Kd in experiment [5] was > 30 µM (inactive); in experiment [6], > 30 µM (inactive); in [7], > 30 µM (inactive); in experiment [8], 0.0007 µM (active).
